In the NIST ThermoML archive (doi:10.1016/j.jct.2013.02.023):
Values joined by “and” are separate entries in the source; they are usually repeats but may differ in a detail not shown here. Identical values can stand only once.

Assay: molar heat capacity at constant pressure
Conditions: 101.33 kPa, relaxation calorimetry - Quantum Design PPMS

O=P([O-])([O-])OP(=O)([O-])[O-].O=P([O-])([O-])OP(=O)([O-])[O-].O=P([O-])([O-])OP(=O)([O-])[O-].[Fe+3].[Fe+3].[Fe+3].[Fe+3] [iron(III) diphosphate]
molar heat capacity at constant pressure
Conditions | Crystal 2 | Crystal 3
1 K | – | 0.08105 J/K/mol
1.909 K | – | 0.1843 J/K/mol
2 K | – | 0.2057 J/K/mol
2.045 K | – | 0.2088 J/K/mol
2.21 K | – | 0.2418 J/K/mol
2.506 K | – | 0.3014 J/K/mol
2.763 K | – | 0.3632 J/K/mol
3 K | – | 0.4233 J/K/mol
3.058 K | – | 0.4449 J/K/mol
3.392 K | – | 0.553 J/K/mol
3.803 K | – | 0.7103 J/K/mol
4 K | – | 0.8002 J/K/mol
4.207 K | – | 0.9081 J/K/mol
4.685 K | – | 1.188 J/K/mol
5 K | – | 1.41 J/K/mol
5.203 K | – | 1.56 J/K/mol
5.797 K | – | 2.097 J/K/mol
6 K | – | 2.314 J/K/mol
6.489 K | – | 2.871 J/K/mol
7 K | – | 3.559 J/K/mol
7.172 K | – | 3.81 J/K/mol
7.975 K | – | 5.084 J/K/mol
8 K | – | 5.127 J/K/mol
8.875 K | – | 6.71 J/K/mol
9 K | – | 6.952 J/K/mol
10 K | – | 9.006 J/K/mol
10.03 K | – | 9.074 J/K/mol
11 K | – | 11.23 J/K/mol
11.16 K | – | 11.61 J/K/mol
12 K | – | 13.56 J/K/mol
12.39 K | – | 14.49 J/K/mol
13 K | – | 15.98 J/K/mol
13.77 K | – | 17.87 J/K/mol
14 K | – | 18.43 J/K/mol
15 K | – | 20.84 J/K/mol
15.31 K | – | 21.61 J/K/mol
16 K | – | 23.37 J/K/mol
17 K | – | 26.01 J/K/mol and 26.02 J/K/mol
18 K | – | 28.75 J/K/mol
18.85 K | – | 31.22 J/K/mol
19 K | – | 31.74 J/K/mol and 31.7 J/K/mol
19.52 K | – | 33.09 J/K/mol
20 K | – | 34.42 J/K/mol
20.61 K | – | 36.2 J/K/mol
20.9 K | – | 37.11 J/K/mol
21.09 K | – | 37.43 J/K/mol
21.6 K | – | 38.93 J/K/mol
21.81 K | – | 39.43 J/K/mol
22.11 K | – | 40.45 J/K/mol
22.85 K | – | 42.81 J/K/mol
23.25 K | – | 44.02 J/K/mol
23.87 K | – | 46 J/K/mol
23.89 K | – | 46.12 J/K/mol
24.08 K | – | 46.85 J/K/mol
24.28 K | – | 47.45 J/K/mol
24.47 K | – | 48.12 J/K/mol
24.67 K | – | 48.81 J/K/mol
24.88 K | – | 49.5 J/K/mol
25 K | – | 49.88 J/K/mol
25.08 K | – | 50.12 J/K/mol
25.28 K | – | 50.75 J/K/mol
25.47 K | – | 51.26 J/K/mol
25.67 K | – | 51.84 J/K/mol
25.81 K | – | 52.19 J/K/mol
25.87 K | – | 52.46 J/K/mol
26.07 K | – | 53.07 J/K/mol
26.27 K | – | 53.83 J/K/mol
26.48 K | – | 54.56 J/K/mol
26.69 K | – | 55.35 J/K/mol
26.9 K | – | 56.09 J/K/mol
27.11 K | – | 56.75 J/K/mol
27.3 K | 57.27 J/K/mol | 57.27 J/K/mol
27.32 K | 57.27 J/K/mol | –
27.52 K | 56.92 J/K/mol | –
27.7 K | 56.9 J/K/mol | –
27.91 K | 56.91 J/K/mol | –
28.04 K | 57.08 J/K/mol | –
28.11 K | 57.21 J/K/mol | –
28.31 K | 57.58 J/K/mol | –
28.53 K | 58.14 J/K/mol | –
28.63 K | 58.29 J/K/mol | –
28.71 K | 58.58 J/K/mol | –
28.91 K | 59.09 J/K/mol | –
28.99 K | 59.36 J/K/mol | –
29.12 K | 59.63 J/K/mol | –
29.32 K | 60.15 J/K/mol | –
29.52 K | 60.68 J/K/mol | –
30 K | 62 J/K/mol | –
30.01 K | 62.04 J/K/mol | –
30.53 K | 63.41 J/K/mol | –
31.05 K | 65.12 J/K/mol | –
31.57 K | 66.61 J/K/mol | –
31.8 K | 67.25 J/K/mol | –
32.07 K | 68.15 J/K/mol | –
32.58 K | 69.63 J/K/mol | –
33.05 K | 71.25 J/K/mol | –
33.6 K | 73.01 J/K/mol | –
34.1 K | 74.7 J/K/mol | –
34.61 K | 76.5 J/K/mol | –
35 K | 77.84 J/K/mol | –
35.09 K | 78.15 J/K/mol | –
35.33 K | 78.91 J/K/mol | –
35.63 K | 80.11 J/K/mol | –
36.09 K | 81.71 J/K/mol | –
36.62 K | 83.72 J/K/mol | –
37.1 K | 85.44 J/K/mol | –
37.66 K | 87.47 J/K/mol | –
38.15 K | 89.5 J/K/mol | –
38.62 K | 91.24 J/K/mol | –
39.17 K | 93.41 J/K/mol | –
39.24 K | 93.52 J/K/mol | –
39.64 K | 95.31 J/K/mol | –
40 K | 96.72 J/K/mol | –
40.17 K | 97.41 J/K/mol | –
40.66 K | 99.59 J/K/mol | –
41.19 K | 101.8 J/K/mol | –
41.66 K | 103.8 J/K/mol | –
42.22 K | 106.31 J/K/mol | –
42.39 K | 107.06 J/K/mol | –
42.6 K | 108.05 J/K/mol | –
42.8 K | 108.92 J/K/mol | –
43 K | 109.89 J/K/mol | –
43.2 K | 110.79 J/K/mol | –
43.41 K | 111.83 J/K/mol | –
43.59 K | 112.41 J/K/mol | –
43.6 K | 112.72 J/K/mol | –
43.8 K | 113.72 J/K/mol | –
44.01 K | 114.89 J/K/mol | –
44.2 K | 115.83 J/K/mol | –
44.41 K | 116.9 J/K/mol | –
44.61 K | 118.08 J/K/mol | –
44.81 K | 119.19 J/K/mol | –
45 K | 120.36 J/K/mol | –
45.02 K | 120.42 J/K/mol | –
45.22 K | 121.8 J/K/mol | –
